Laboratory results as given in PMC8069289 (Molecules, 2021).
Entries after “also recorded” stand apart in the source; their conditions may differ. Marks after values point to notes of the source that are not given here.

Key:
Drosophila melanogaster [1] = experiment: Chronic treatments: lifespan and healthspan assays; type: in vivo; settings: for Healthspan (80th Percentile) / Mean Lifespan: chronic, mean ±SE; for lifespan compared with concurrent control: all tested concentrations
Experimental: Flies used in the lifespan assays show the same genetic background those used in the genotoxicity assays in order to compare both result. The treated adults consisted of the F1 progeny from mwh and flr^3 parental strains produced by a 24 h eggs-lying in yeast medium. The same compounds and concentrations as in the toxicity/genotoxicity experiments were assayed. Lifespan assays were carried out at 25 °C according to the procedure described by Fernandez-Bedmar et al.. Briefly, synchronized 72 ± 12-h-old trans-heterozygous larvae were washed in distilled water, collected and transferred in groups of 100 individuals into test vials containing 0.85 g Drosophila Instant Medium and 4 mL of the different concentrations of the compounds to be assayed. Emerged adults from pupae were collected under CO2 anaesthesia and placed in groups of 25 individuals of the same sex into sterile vials containing 0.21 g Drosophila Instant Medium and 1 mL of different concentrations of the compounds to be tested. Flies were chronically treated during all their life. The number of survivors was determined twice a week in three different replicates.

HL-60 cells = experiment: Internucleosomal DNA fragmentation; type: cell-based, human; settings: HL-60, 5 h, all tested concentrations
Experimental: DNA fragmentation induction was determined as described by Anter et al. (2014). […] After treatment, genomic DNA was extracted using a commercial kit (Blood Genomic DNA Extraction Mini Spin Kit, Canvax Biotech, Córdoba, Spain). Then, DNA was incubated overnight with RNase at 37 °C and quantified in a spectrophotometer (Nanodrop® ND-1000, NanoDrop Technologies, Inc., Wilmington, DE, USA). Finally, 1200 ng DNA were electrophoresed in a 2% agarose gel for 120 min at 50 V, stained with ethidium bromide and visualized under UV light. The apoptosis process is recognised by the appearance of internucleosomal DNA fragments that are multiple of 200 base pairs.

[2] = tested on: Alu M1 repetitive sequences of HL-60 cells; experiment: Methylation status by qMSP, Alu M1; type: cell-based, human; settings: HL-60, 5 h, 11 mM GLU
Experimental: Then, DNA was extracted similarly to previously described DNA fragmentation assay. After that, the DNA was converted with bisulphite (EZ DNA Methylation-Gold™ Kit, Zymo Research, Irvine, CA, USA). Bisulphite-modified DNA was used for fluorescence-based real-time quantitative Methylation-Specific PCR (qMSP) using 5 µM of each forward and reverse primer (Isogen Life Science BV, Utrecht, The Netherlands), 2 µL of iTaq™ Universal SYBR® Green Supermix (Bio-Rad Laboratories, Inc., Hercules, CA, USA); it contains antibody-mediated hot-start iTaq DNA polymerase, dNTPs, MgCl2, SYBR® Green I dye, enhancers, stabilizers and a blend of passive reference dyes including ROX and fluorescein) and 25 ng of bisulphite converted genomic DNA.
PCR conditions included initial denaturalisation at 95 °C for 3 min and amplification which consisted of 45 cycles at 95 °C for 10 s, 60 °C for 15 s and 72 °C for 15 s, taking picture at the end of each elongation cycle. After that, melting curve was determined increasing 0.5 °C each 0.05 s from 60 °C to 95 °C and taking pictures.
QMSP was carried out in 48 well plates in MiniOpticon Real-Time PCR System (MJ Mini Personal Thermal Cycler, Bio-Rad) and were analysed by Bio-Rad CFX Manager 3.1 Software. The housekeeping Alu-C4 was used as a reference to correct for total DNA input. […] Each sample was analysed in triplicate. […]

[3] = tested on: human umbilical endothelial cells; settings: 30 mM GLU; cited from earlier work
Drosophila melanogaster [4] = experiment: Toxicity assay, survival of larvae to adults (simple treatment)
Experimental: Toxicity was assayed according to our standard protocols. […] Tested groups consisted of larvae fed with Drosophila Instant Medium (Formula 4–24, Carolina Biological Supply, Burlington, NC, USA) supplemented with the assessed compounds concentrations. Emerging adults of all groups were counted and toxicity was determined as the percentage of hatched individuals in each treatment compared with the negative control.

CHO cells = tested on: CHO cells; set-up: method as in PMID 7588651; settings: 1 mM TAU; cited from earlier work
Drosophila = settings: cited from earlier work
calf thymus DNA = tested on: calf thymus DNA; set-up: method as in PMID 11787620; settings: 5–20 mM TAU; cited from earlier work
Drosophila melanogaster [5] = experiment: Genotoxicity, wing spot test (SMART); settings: simple treatment; for Large Simple Spots (>2 Cells) m = 5 / Small Single Spots (1–2 Cells) m = 2 / Total Spots m = 2: No. of spots in parentheses
Experimental: The wing spot test was performed to evaluate genotoxicity assays following the standard procedure [14]. Briefly, trans-heterozygous larvae for mwh and flr^3 genes were obtained by crossing four day-old virgin flr^3 females with mwh males in a 2:1 ratio. Four days after fertilization, females were allowed to lay eggs in fresh yeast medium (25 g yeast and 4 mL sterile distilled water) for 8 h in order to obtain synchronized larvae. After 72 h, larvae were collected, washed with distilled water, and clustered in groups of 100 individuals. […] Adult flies were collected and stored in 70% ethanol until the wings were removed and mounted on slides using Faure’s solution. Mutant spots were assessed in both dorsal and ventral surfaces of the wings in a bright light microscope at 400× magnification. The frequencies of each type of mutant clone per wing (single, large or twin spot) were compared with the concurrent negative control [43]. All inconclusive and positive results (p > 0.05) were analysed with the nonparametric U-test of Mann, Whitney and Wilcoxon (α = β = 0.05).

[6] = GLU 2.7 mM vs concurrent water control
[7] = GLU 11 mM vs concurrent water control
[8] = GLU 21.86 mM vs concurrent water control
[9] = GLU 87.5 mM vs concurrent water control
[10] = GLU 350 mM vs concurrent water control
[11] = TAU 0.25 mM vs concurrent water control
[12] = TAU 1 mM vs concurrent water control
[13] = TAU 2 mM vs concurrent water control
[14] = TAU 8 mM vs concurrent water control
[15] = TAU 32 mM vs concurrent water control

With `OC[C@H]1OC(O)[C@H](O)[C@@H](O)[C@@H]1O` (some centres unmarked) [GLU, Glucose] the “increase of the quality of life (healthspan)” value (Drosophila melanogaster [1]; 350 mM GLU) was 34%, the “Healthspan Difference (%)” value (Drosophila melanogaster [1]; [6]) was −4.5% and the “Mean Lifespan Difference (%)” value (Drosophila melanogaster [1]; [6]) was 2.65%. The “Healthspan (80th Percentile)” value (Drosophila melanogaster [1]; GLU 2.7 mM) was 31.14 ± 1.53 days, the “Mean Lifespan” value (Drosophila melanogaster [1]; GLU 2.7 mM) was 61.25 ± 2.12 days and the “Healthspan Difference (%)” value (Drosophila melanogaster [1]; [7]) was 25.65%. The “Mean Lifespan Difference (%)” value (Drosophila melanogaster [1]; [7]) was 8.76%, the “Healthspan (80th Percentile)” value (Drosophila melanogaster [1]; GLU 11 mM) was 41 ± 3.4 days and the “Mean Lifespan” value (Drosophila melanogaster [1]; GLU 11 mM) was 64.9 ± 2.05 days. The “Healthspan Difference (%)” value (Drosophila melanogaster [1]; [8]) was −5.8%, the “Mean Lifespan Difference (%)” value (Drosophila melanogaster [1]; [8]) was 5.9% and the “Healthspan (80th Percentile)” value (Drosophila melanogaster [1]; GLU 21.86 mM) was 30.66 ± 3.62 days. For the same compound, the “Mean Lifespan” value (Drosophila melanogaster [1]; GLU 21.86 mM) was 63.21 ± 2.08 days, the “Healthspan Difference (%)” value (Drosophila melanogaster [1]; [9]) was −8.4% and the “Mean Lifespan Difference (%)” value (Drosophila melanogaster [1]; [9]) was 1.39%. For the same compound, the “Healthspan (80th Percentile)” value (Drosophila melanogaster [1]; GLU 87.5 mM) was 29.9 ± 1.96 days, the “Mean Lifespan” value (Drosophila melanogaster [1]; GLU 87.5 mM) was 60.5 ± 2.5 days and the “Healthspan Difference (%)” value (Drosophila melanogaster [1]; [10]) was −34%. The “Mean Lifespan Difference (%)” value (Drosophila melanogaster [1]; [10]) was −1.2%, the “Healthspan (80th Percentile)” value (Drosophila melanogaster [1]; GLU 350 mM) was 21.5 ± 0.76 days and the “Mean Lifespan” value (Drosophila melanogaster [1]; GLU 350 mM) was 59 ± 3.1 days. For the same compound, the “lifespan compared with concurrent control” value (Drosophila melanogaster [1]) was “did not significantly differ”, the “internucleosomal DNA fragmentation (ladder pattern)” value (HL-60 cells) was “did not induce DNA fragmentation” and the “methylation status of Alu sequences” value [2] was “hypermethylated; also recorded: significantly increased”. The cytotoxicity [3] was “cytotoxicity was demonstrated”, the “Survival (%) Simple Treatment” value (Drosophila melanogaster [4]; GLU 2.7 mM) was 98% and the “Survival (%) Simple Treatment” value (Drosophila melanogaster [4]; GLU 11 mM) was 92.65%. The “Survival (%) Simple Treatment” value (Drosophila melanogaster [4]; GLU 21.86 mM) was 90.32%, the “Survival (%) Simple Treatment” value (Drosophila melanogaster [4]; GLU 87.5 mM) was 70.3 * % and the “Survival (%) Simple Treatment” value (Drosophila melanogaster [4]; GLU 350 mM) was 65 * %.
For `NCCS(=O)(=O)O` [TAU, 2-aminoethanesulfonic acid], the “Healthspan Difference (%)” value (Drosophila melanogaster [1]; [11]) was −7.3%, the “Mean Lifespan Difference (%)” value (Drosophila melanogaster [1]; [11]) was 4.57% and the “Healthspan (80th Percentile)” value (Drosophila melanogaster [1]; TAU 0.25 mM) was 34.98 ± 3.954 days. For the same compound, the “Mean Lifespan” value (Drosophila melanogaster [1]; TAU 0.25 mM) was 67.94 ± 2.603 days, the “Healthspan Difference (%)” value (Drosophila melanogaster [1]; [12]) was −20% and the “Mean Lifespan Difference (%)” value (Drosophila melanogaster [1]; [12]) was 2.81%. For the same compound, the “Healthspan (80th Percentile)” value (Drosophila melanogaster [1]; TAU 1 mM) was 30.22 ± 1.878 days, the “Mean Lifespan” value (Drosophila melanogaster [1]; TAU 1 mM) was 66.81 ± 3.215 days and the “Healthspan Difference (%)” value (Drosophila melanogaster [1]; [13]) was −6.4%. For the same compound, the “Mean Lifespan Difference (%)” value (Drosophila melanogaster [1]; [13]) was −4.8%, the “Healthspan (80th Percentile)” value (Drosophila melanogaster [1]; TAU 2 mM) was 35.357 ± 0.9 days and the “Mean Lifespan” value (Drosophila melanogaster [1]; TAU 2 mM) was 61.83 ± 2.25 days. For the same compound, the “Healthspan Difference (%)” value (Drosophila melanogaster [1]; [14]) was −2.6%, the “Mean Lifespan Difference (%)” value (Drosophila melanogaster [1]; [14]) was 7.95% and the “Healthspan (80th Percentile)” value (Drosophila melanogaster [1]; TAU 8 mM) was 36.8 ± 2.832 days. For the same compound, the “Mean Lifespan” value (Drosophila melanogaster [1]; TAU 8 mM) was 70.142 ± 2.385 days, the “Healthspan Difference (%)” value (Drosophila melanogaster [1]; [15]) was −3.2% and the “Mean Lifespan Difference (%)” value (Drosophila melanogaster [1]; [15]) was 1.6%. For the same compound, the “Healthspan (80th Percentile)” value (Drosophila melanogaster [1]; TAU 32 mM) was 36.57 ± 3.55 days, the “Mean Lifespan” value (Drosophila melanogaster [1]; TAU 32 mM) was 66.04 ± 2.055 days and the “lifespan compared with concurrent control” value (Drosophila melanogaster [1]) was “did not significantly differ”. For the same compound, the “internucleosomal DNA fragmentation (ladder pattern)” value (HL-60 cells) was “did not induce DNA fragmentation”, the “induction of chromosome aberrations and sister chromatid exchanges” value (CHO cells) was “not able to induce neither chromosome aberrations nor sister chromatid exchanges” and the “lifespan of Drosophila” value (Drosophila; 1.6% TAU) was “decrease the lifespan”. For the same compound, the “adult lifespan of Drosophila” value (Drosophila; TAU 0.05 to 0.20 M) was “had no influence on adult lifespan”, the “estimated mean values of survival” value (Drosophila; TAU 8–24 mM) was “increased the estimated mean values of survival” and the “protection of DNA against oxidative damage” value (calf thymus DNA) was “DNA-protected concentrations against oxidative damage”. The “Twin Spots m = 5” value (Drosophila melanogaster [5]; TAU 1 mM) was 0 clones per wing, the “Large Simple Spots (>2 Cells) m = 5” value (Drosophila melanogaster [5]; TAU 1 mM) was 0.08 (3) clones per wing and the “Small Single Spots (1–2 Cells) m = 2” value (Drosophila melanogaster [5]; TAU 1 mM) was 0.027 (1) clones per wing. The “Total Spots m = 2” value (Drosophila melanogaster [5]; TAU 1 mM) was 0.108 (4) clones per wing, the “Twin Spots m = 5” value (Drosophila melanogaster [5]; TAU 32 mM) was 0 clones per wing and the “Large Simple Spots (>2 Cells) m = 5” value (Drosophila melanogaster [5]; TAU 32 mM) was 0.05 (2) clones per wing. The “Small Single Spots (1–2 Cells) m = 2” value (Drosophila melanogaster [5]; TAU 32 mM) was 0.15 (6) clones per wing and the “Total Spots m = 2” value (Drosophila melanogaster [5]; TAU 32 mM) was 0.2 (8) clones per wing.
